The source of these data is patent US20120021434A1, “METHOD FOR TREATING B CELL REGULATED AUTOIMMUNE DISORDERS” (Synta Pharmaceuticals Corp., priority 2005, published 2012).

The target of one assay is T1, c-Rel (Homo sapiens, UniProt Q04864).
T1 construct: a western blot assay of THP1 nuclear c-Rel, p50 and p65 proteins was carried out; endogenous in cells; host or cells: THP-1; Jurkat
T1 sequence (Q04864 1-619): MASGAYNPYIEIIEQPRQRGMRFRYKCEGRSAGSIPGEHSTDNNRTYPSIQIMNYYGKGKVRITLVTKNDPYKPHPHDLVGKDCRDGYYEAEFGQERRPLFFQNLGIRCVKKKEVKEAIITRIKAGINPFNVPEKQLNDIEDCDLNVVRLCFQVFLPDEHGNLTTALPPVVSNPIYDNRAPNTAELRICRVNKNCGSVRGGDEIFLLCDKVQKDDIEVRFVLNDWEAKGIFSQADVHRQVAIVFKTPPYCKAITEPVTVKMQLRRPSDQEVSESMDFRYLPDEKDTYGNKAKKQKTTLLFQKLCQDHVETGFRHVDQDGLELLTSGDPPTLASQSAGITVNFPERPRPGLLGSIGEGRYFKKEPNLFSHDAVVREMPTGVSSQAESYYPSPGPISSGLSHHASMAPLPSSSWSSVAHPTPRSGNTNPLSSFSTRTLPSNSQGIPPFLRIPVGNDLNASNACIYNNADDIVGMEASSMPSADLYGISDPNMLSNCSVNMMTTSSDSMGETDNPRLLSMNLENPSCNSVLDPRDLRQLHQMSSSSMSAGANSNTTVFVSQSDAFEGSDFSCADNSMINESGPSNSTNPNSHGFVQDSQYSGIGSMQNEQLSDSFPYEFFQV
The assay is described as follows: Western blot of THP-1 nuclear extracts: c-Rel. Type of assay: cell-based. As to conditions: of the transcription factors analyzed. Here is the method:
The THP-1 cell, Jurkat cell and RAW264.7 cell line were obtained from American Type Culture Collection (Manassas, Va.). The THP-1 Jurkat cells were cultured in RPMI 1640 (ATCC, Manassas, Va.), supplemented with 10% FCS (ATCC, Manassas, Va.), and 1% penicillin/Streptomycin (Gibco-BRL, New York, N.Y.). The RAW264.7 cells were cultured in DMEM (ATCC, Manassas, Va.) supplemented with 10% FCS (ATCC, Manassas, Va.), and 1% penicillin/Streptomycin (Gibco-BRL, New York, N.Y.). The cells were stimulated with human or murine recombinant IFNγ (100 ng/ml) for 10 h followed by LPS (1 μg/ml) or SAC (0.025%) CpG ([…]) in the presence or absence of Compound 50 at different concentrations for an additional incubation.
THP-1 cells were suspended in 20 volumes of buffer A containing 10 mM KCl, 10 mM HEPES (pH 7.9), 1 mM MgCl2, 1 mM dithiothreitol (DTT), 0.1% Nonidet p40 (NP-40), and 0.5 mM phenylmethylsulfonyl fluoride (PMSF) and homogenized and centrifuged at 10,000 rpm at 4C afor 5 min. Nuclear pellets were then suspended in buffer C containing 400 mM NaCl, 20 mM HEPES 9, pH 7.9), 15 mM MgCl2, 0.2 mM EDTA, 1 mM DTT, 25% glycerol, 1 mM PMSF, and 10 ug of leupeptin, 20 ug of pepstatin, and 10 ug/ml antipain, incubated for 30 min at 4C, and centrifuged at 14,000 rpm for 20 min. The supernatants were dialyzed against buffer D containing 100 mM NaCl, 20 mM HEPES (pH 7.9), 20% glycerol, 1 mM PMSF, and 1 mM DTT.
The 10% SDS Polyacrylamide gels (Inveitrogen) were transferred to Pure Nitrocellulose membrane (BioRed, Hercules, Calif.). The membranes were blocked with 5% milk in TBST buffer and incubated with anti-c-Rel, anti-p65, anti-p50, anti-ICSBP or anti-PU-1 antibody (all the antibodies were purchased from Santa Cruz) at a dilution of 1:500 for 1 h at room temperature or overnight at 4C. […]
Of the transcription factors that have been analyzed, two factors, ICSBP and c-Rel, seem to be affected by Compound 4/Compound 50 treatment. […]
For orientation: A western blot detects proteins with antibodies after separation by electrophoresis.

The test system of a further assay is ICSBP. In words: ICSBP expression (Western blot). The assay is classed as cell-based. As to conditions: of the transcription factors analyzed. Here is the method: The 10% SDS Polyacrylamide gels (Inveitrogen) were transferred to Pure Nitrocellulose membrane (BioRed, Hercules, Calif.). The membranes were blocked with 5% milk in TBST buffer and incubated with anti-c-Rel, anti-p65, anti-p50, anti-ICSBP or anti-PU-1 antibody (all the antibodies were purchased from Santa Cruz) at a dilution of 1:500 for 1 h at room temperature or overnight at 4C. The membranes were washed and incubated with Horseradish Peroxidase-conjugated anti-rabbit IgG or anti-mouse IgG (Amersham, England) at a dilution of 1:2000 at room temperature for 1 h.
Of the transcription factors that have been analyzed, two factors, ICSBP and c-Rel, seem to be affected by Compound 4/Compound 50 treatment. ICSBP binds indirectly to the Ets-2 site. The primary NF-κB trans-activator for IL-12 is the c-Rel/p50 heterodimer. Other dimers (p65/p50 and p50/p50) either lack activity or have inhibitory functions. Thus, c-Rel plays a role in IL-12 transcription as a result of both activation through NF-κB and its interaction with ICSBP. […] The membranes were blocked with 5% milk in TBST buffer and then incubated with anti-c-Rel, anti-p65, anti-p50, anti-ICSBP or anti-PU-1 antibody (all the antibodies were purchased from Santa Cruz) at a dilution of 1:500 for 1 h at room temperature or overnight at 4° C. The membranes were washed and incubated with Horseradish Peroxidase-conjugated anti-rabbit IgG or anti-mouse IgG (Amersham, England) at a dilution of 1:2000 at room temperature for 1 h.
ICSBP, whose expression was reduced by Compound 50, was over-expressed using co-transfection with the IL-12 promoter-Luc report system. The over-expression construct of ICSBP was generated by PCR from cDNA of human PBMC using primers as follow: ICSBP-exp-F: 5′-[…]-3′ (SEQ ID NO:1) and ICSBP-exp-R: 5′-[…]-3′ (SEQ ID NO:2), the resulting PCR products was ligated to pCI vector (Promega).

Each structure is given as a SMILES string.

Turning to `C(=N\Nc1nc(OCCc2ccccn2)nc(N2CCOCC2)n1)/c1c[nH]c2ccccc12` [Compound 4], the “transcription factor c-Rel affected by treatment” value on c-Rel is reported as “affected”. For the same compound, the “transcription factor ICSBP affected by treatment” value with ICSBP is “affected”.
